Results from US8981112B2, “Inhibitors of β-secretase” (Boehringer Ingelheim International GmbH, priority 2012, dated 2015).

Columns and labels:
[1] = In Vitro Phospholipidosis Assay (Assay 4), Nile red staining; type: cell-based; conditions: human, first effect concentration, U937 cells, read-out: Phospholipidosis FEC IC50 μM (assay 4)
Experimental: In Vitro Phospholipidosis Assay (Assay 4)
The phospholipidogenic potential of test compounds was assayed using the human hematopoetic U937 cell line. The test principle was to analyze the phospholipid content by staining the cells with the fluorescent dye Nile red.
U937 cells were seeded into cell culture plates at 0.5×10^6 cells/mL in RPMI medium containing 10% FBS, 1% DMSO, and 0.005% gentamicin. The cells were then cultivated with or without different concentrations of test compounds for 48 h under standard culture conditions.
For harvesting the cells were centrifuged at 130×g for 4 min and washed once with PBS. Then 2×0.5 mL cell suspension was prepared for non-fixed cell measurement (0.5 mL for propidium iodide (PI) viability measurement and 0.5 mL for Nile red measurement).
The remaining cells were fixed with 3.7% formaldehyde for 30 min. After a further centrifugation step cells were resuspended with 1.3 mL Nile red working solution (1 μg/mL) and incubated for 5 min at rt. The cell suspension was then washed twice with 3 mL PBS and centrifuged with 130×g for 4 min. The supernatant was discarded and the cells were resuspended with 0.5 mL PBS and kept for flow cytometry measurement. For Nile red staining of the 0.5 mL non-fixed cell samples, 50 μL of a ready to use Nile red solution (10 μg/mL) were added per sample. Samples were kept on ice for 5 min. Thereafter, they were washed once with 4 mL PBS (4° C., 250×g for 8 min) and finally resuspended in 400 μL PBS and kept for flow cytometry measurement.
For the viability measurement, 12.5 μL of the ready to use PI solution (10 μg/mL) were added to the 0.5 mL non-fixed cell suspension. After 15 min of incubation on ice, the samples were measured by flow cytometry using a Coulter Epics XL/MCL flow cytometer.
The viability of the cells of each sample was determined by flow cytometry measurement of the PI content at channel 2 (568-590 nm). Cut-off gates for the fluorescence-dependent differentiation between live and dead cells were defined based on the analysis of cell culture medium control samples.
Only samples with a cell viability of >=90% relative to control samples were analyzed for phospholipidosis. For that, each Nile red sample (non-fixed and fixed samples) was measured by flow cytometry at channel 1 (504-541 nm) and channel 4 (660-680 nm).
For each channel, relative Nile red fluorescence intensity of a test sample was calculated compared to control samples and expressed as percentage of control fluorescence intensity. The assessment of the phospholipidogenic potential and the first effect concentration (FEC) of a test compound was done manually based on the fluorescence intensities at both wavelengths for the fixed cells as well as for the non-fixed cells.

hERG = hERG (Homo sapiens (Human), UniProt Q12809); assay: hERG-Channel Assay (Assay 3), whole-cell patch clamp; type: cell-based; conditions: human, HEK293 cells stably transfected with hERG, pH 7.4; 10 μM, HEK293 cells transfected with hERG
Source text: hERG-Channel Assay (Assay 3)
HEK (human embryonic kidney) 293 cells were stably transfected with hERG cDNA.
Cells were superfused with a bath solution containing (mM): NaCl (137), KCl (4.0), MgCl2 (1.0), CaCl2 (1.8), Glucose (10), HEPES (10), pH 7.4 with NaOH. Patch pipettes were made from borosilicate glass tubing using a horizontal puller and filled with pipette solution containing (mM): K-aspartate (130), MgCl2 (5.0), EGTA (5.0), K2ATP (4.0), HEPES (10.0), pH 7.2 with KOH. Resistance of the microelectrodes was in the range between 2 and 5 MΩ.
Membrane currents were recorded using an EPC-10 patch clamp amplifier and PatchMaster software. hERG-mediated membrane currents were recorded at 35° C., using the whole-cell configuration of the patch-clamp technique. Transfected HEK293 cells were clamped at a holding potential of −60 mV and hERG-mediated inactivating tail currents were elicited using a pulse pattern with fixed amplitudes (activation/inactivation: 40 mV for 2000 ms; recovery: −120 mV for 2 ms; ramp to 40 mV in 2 ms; inactivating tail current: 40 mV for 50 ms) repeated at 15 s intervals. During each inter-pulse interval 4 pulses scaled down by a factor of 0.2 were recorded for a P/n leak subtraction procedure. Rs compensation was employed up to a level that safely allowed recording devoid of ringing.
The different concentrations of the test compound were applied sequentially on each of the different cells investigated. A steady state level of baseline current was measured for at least 6 sweeps prior to the application of the first test compound concentration.
The test compound was dissolved in DMSO to yield a master stock solution which was diluted further in DMSO to stock solutions needed for the lower concentrations. Final dilutions in extracellular buffer were prepared freshly from these stocks by a 1:1000 dilution step each before starting the experiments.
Peak current amplitudes were measured 3 ms after the ramp to +40 mV. For baseline and each concentration the peak currents of the three last sweeps before application of the next concentration were averaged. Residual currents (I/I0) were calculated for each cell as the fraction of actual average peak current and average baseline peak current. Results are presented as percent (%) inhibition (1−I/I0)*100% at 10 μM.

[2] = test system: production of Abeta1-x peptides in H4 neuroglioma cell line stably expressing human APP; assay: H4-APPwt Cell-Based Assay (Assay 2), Abeta1-x production; conditions: H4 neuroglioma cells expressing human APP, Abeta1-x; read-out: H4-APPwt cell IC50 nM (assay 2)
Experimental: H4-APPwt Cell-Based Assay (Assay 2)
Cellular potency of the compounds of the invention was assessed in an assay monitoring production of Abeta1-x peptides in the H4 neuroglioma cell line (ATCC, Cat. #HTB-148) stably expressing human APP, using an immunoassay such as AlphaLISA (PerkinElmer, Cat.# AL288). Tested compounds were dissolved in DMSO and pre-diluted in the culture medium (DMEM containing 10% FBS and 1% penicillin/streptomycin) to achieve twice the final concentration of the compounds in the assay. Equal volumes of the 2× solutions of the tested compounds and cell suspension were added to a 96-well culture plate, so that each well contained ˜10,000 cells in a final volume of 200 μl. Final concentration of DMSO in the assay was 0.2%. The plates were incubated for 5 hrs at 37° C., 5% CO2 to allow cells to attach to the bottom of the wells in the presence of the tested compounds. Then the media was removed and replaced with fresh media containing tested compounds at the same final concentration. The plates were incubated for 18 hrs at 37° C., 5% CO2. Concentrations of Ab1-x were determined using AlphaLISA immunoassay (PerkinElmer, Cat.# AL288) following manufacturer's protocol. Concentrations of Abeta1-x in the wells containing either DMSO or 10 μM beta-secretase inhibitor (BACE inhibitor IV, EMD Bioscience, Cat. #565788) were used as uninhibited and background controls, correspondingly, for calculating percent inhibition values for each well with the tested compounds.

Sequence of hERG (Q12809 whole entry): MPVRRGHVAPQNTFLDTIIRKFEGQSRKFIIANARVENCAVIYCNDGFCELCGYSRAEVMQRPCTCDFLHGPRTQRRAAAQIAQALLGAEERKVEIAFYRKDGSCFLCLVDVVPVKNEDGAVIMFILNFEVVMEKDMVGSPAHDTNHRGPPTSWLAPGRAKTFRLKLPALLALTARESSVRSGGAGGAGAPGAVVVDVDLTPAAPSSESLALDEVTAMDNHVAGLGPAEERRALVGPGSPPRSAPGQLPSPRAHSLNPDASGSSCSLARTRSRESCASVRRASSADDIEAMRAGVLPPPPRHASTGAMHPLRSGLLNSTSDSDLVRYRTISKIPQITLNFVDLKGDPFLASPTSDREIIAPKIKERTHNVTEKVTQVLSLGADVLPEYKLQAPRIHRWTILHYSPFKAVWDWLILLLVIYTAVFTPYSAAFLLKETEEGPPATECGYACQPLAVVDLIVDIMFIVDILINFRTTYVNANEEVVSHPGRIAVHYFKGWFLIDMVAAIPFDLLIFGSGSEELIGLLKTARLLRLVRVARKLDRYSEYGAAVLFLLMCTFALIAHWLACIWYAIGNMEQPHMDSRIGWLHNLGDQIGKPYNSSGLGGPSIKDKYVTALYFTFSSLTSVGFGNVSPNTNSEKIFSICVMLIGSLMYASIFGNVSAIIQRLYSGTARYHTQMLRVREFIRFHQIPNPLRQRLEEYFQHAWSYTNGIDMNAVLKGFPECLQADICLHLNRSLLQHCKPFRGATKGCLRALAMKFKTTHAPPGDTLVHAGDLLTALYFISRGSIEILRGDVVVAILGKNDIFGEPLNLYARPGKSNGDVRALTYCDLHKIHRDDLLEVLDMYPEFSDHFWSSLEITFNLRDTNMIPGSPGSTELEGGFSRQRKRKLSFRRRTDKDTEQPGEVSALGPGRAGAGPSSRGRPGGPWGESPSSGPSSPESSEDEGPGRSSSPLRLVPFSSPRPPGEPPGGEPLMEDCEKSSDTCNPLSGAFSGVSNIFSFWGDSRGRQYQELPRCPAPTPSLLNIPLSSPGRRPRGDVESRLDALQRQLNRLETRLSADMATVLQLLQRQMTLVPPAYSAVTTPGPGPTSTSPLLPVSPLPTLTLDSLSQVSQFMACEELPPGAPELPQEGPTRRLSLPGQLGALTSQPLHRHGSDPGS

SMILES | IC50 at 48 h [1] [µM] | inhibition at 10 µM (hERG) [%] | IC50 [2] [nM]
CO[C@H]1[C@H](C)C[C@@]2(Cc3ccc(C#N)cc3[C@]23N=C(N)N(C[C@@H]2CCO2)C3=O)C[C@@H]1C (stereo in doubt) [Example 18] | > 400 | 17 | 1.02
CC[C@@H]1C[C@]2(CC[C@H]1OC)Cc1ccc(C#N)cc1[C@]21N=C(N)N(CC2CCOCC2)C1=O [Example 2] | 200 | 22 | 0.29
CC[C@@H]1C[C@]2(CC[C@H]1OC)Cc1ccc(C#N)cc1[C@]21N=C(N)N(CC2(F)CCOCC2)C1=O [Example 4] | > 400 | 0 | 0.28
CO[C@H]1CC[C@@]2(Cc3ccc(C#N)cc3[C@]23N=C(N)N(CC2(C)COC2)C3=O)C[C@@H]1C [Example 8] | > 200 | 16 | 0.49
CO[C@H]1CC[C@@]2(Cc3ccc(C#N)cc3[C@]23N=C(N)N(Cc2ccncn2)C3=O)C[C@@H]1C [Example 9] | 400 | 16 | 1.9
CO[C@H]1[C@H](C)C[C@@]2(Cc3ccc(C#N)cc3[C@]23N=C(N)N(C2COC2)C3=O)C[C@@H]1C [Example 12] | 400 | 11 | 1.1
CO[C@H]1[C@H](C)C[C@@]2(Cc3ccc(C#N)cc3[C@]23N=C(N)N(CC2COC2)C3=O)C[C@@H]1C [Example 13] | 200 | 18 | 0.92
CO[C@H]1[C@H](C)C[C@@]2(Cc3ccc(C#N)cc3[C@]23N=C(N)N(C[C@H]2CCCO2)C3=O)C[C@@H]1C [Example 14] | > 200 | 20 | 0.12
CO[C@H]1[C@H](C)C[C@@]2(Cc3ccc(C#N)cc3[C@]23N=C(N)N(C[C@@H]2CCCO2)C3=O)C[C@@H]1C [Example 15] | 200 | 11 | 0.11
CO[C@H]1[C@H](C)C[C@@]2(Cc3ccc(C#N)cc3[C@]23N=C(N)N(CC(C)(C)F)C3=O)C[C@@H]1C [Example 17] | > 200 | 12 | 0.89
CO[C@H]1[C@H](C)C[C@@]2(Cc3ccc(C#N)cc3[C@]23N=C(N)N(C[C@@H]2COCCO2)C3=O)C[C@@H]1C [Example 21] | 400 | 24 | 0.48
CO[C@H]1[C@H](C)C[C@@]2(Cc3ccc(C#N)cc3[C@]23N=C(N)N(C[C@H]2COCCO2)C3=O)C[C@@H]1C [Example 22] | > 400 | 9 | 0.26
CO[C@H]1[C@H](C)C[C@@]2(Cc3ccc(C#N)cc3[C@]23N=C(N)N(CC2(F)CCOCC2)C3=O)C[C@@H]1C [Example 23] | > 200 | 16 | 0.18
CC[C@@H]1C[C@@]2(Cc3ccc(C#N)cc3[C@]23N=C(N)N(CC(C)(C)F)C3=O)C[C@H](C)[C@H]1OC [Example 26] | > 200 | 8 | 0.2
